Data on one compound can be found in patent US6124324A, “Thiophene-ethyl thiourea compounds and use” (Hughes Institute, priority 1999, dated 2000).

Series [1] is described as follows: Microculture Tetrazolium Assay (MTA), cytotoxicity. Type of series: cell-based. The note with it: XTT cytotoxicity; read-out: CC50 MTA. The method, then: A Microculture Tetrazolium Assay (MTA), using 2,3-bis(2-methoxy-4-nitro-5-sulfophenyl)-5-[(phenylamino)-carbonyl]-2H-tetrazolium hydroxide (XTT), was performed to evaluate the cytotoxicity of the compounds, using the methods described, for example, in Uckun et.al., 1998, Antimicrobial Agents and Chemotherapy 42:383; and Mao et.al., 1998, Bioorg. Med. Chem. Lett. 8:2213.

The subject of series [2] is HIV-1 strain HTLVIIIB
The experiment in a line: Inhibition of replication of HIV-1 strain HTLVIIIB in PBMC (p24 antigen EIA). Type of series: cell-based. The note with it: Human immunodeficiency virus 1, IIIB; inhibition of p24 antigen production in PBMC; read-out: IC50 HTLV IIIB. As for the experimental part:
(§1) In addition, the anti-HIV activity of the compounds was measured by determining their ability to inhibit the replication of the HIV-1 strains HTLVIIIB, RT-MDR, A17, and A17 variant in peripheral blood mononuclear cells (PBMC) from healthy volunteer donors, using the method described in Uckun et.al., 1998, Antimicrobial Agents and Chemotherapy 42:383.
(§2) Normal human peripheral blood mononuclear cells (PBMNC) from HIV-negative donors were cultured 72 hours in RPMI 1640 supplemented with 20% (v/v) heat-inactivated fetal bovine serum (FBS), 3% interleukin-2,2 mM L-glutairine, 25 mM HEPES, 2 μL, NAHCO, […] gentamicin, and 4 Ag/mL phytohemagglutinin prior to exposure to HIV-1 or other HIV strain. The cells were then infected with virus at a multiplicity of infection (MOI) of 0.1 during a one-hour adsorption period at 37° C. in a humidified 5% CO2 atmosphere. Subsequently, cells were cultured in 96-well microplates (100 μL/well; 2×10^6 cells/mL, triplicate wells) in the presence of various inhibitor concentrations. Aliquots of culture supernatants were removed from the wells on the 7 th day after infection for p24 antigen p24 enzyme immunoassays (EIA), as previously described in Erice et al., 1993, Antimicrob. Ag. Chemotherapy 37:385-838. The applied p24 EIA was the unmodified kinetic assay commercially available from Coulter Corporation/Immunotech, Inc. (Westbrook, Me.).
(§3) Percent inhibition of viral replication was calculated by comparing the p24 values from the test substance-treated infected cells with p24 values from untreated infected cells (i.e, virus controls). […]

Series [3] has as its system HIV-1 strain HTLVIIIB
As to conditions: earlier publication (Mao et al.), cited from earlier work.

In series [4] the target is T1, purified recombinant HIV RT (Human immunodeficiency virus type 1 group M subtype B, UniProt P04585).
T1 construct: purified recombinant HIV RT; purchased Amersham, Arlington Heights, Ill; (Quan-T-RT system)
In words: Purified RT assay, cell-free Quan-T-RT system (scintillation proximity). Type of series: biochemical. The note with it: IC50 rRT, Table 2; recombinant HIV RT. The method, then:
The synthesized compounds were tested for RT inhibitory activity (IC50 [rRT]) against purified recombinant HIV RT using the cell-free Quan-T-RT system (Amersham, Arlington Heights, Ill.), which utilizes the scintillation proximity assay principle as decribed in Bosworth, et al., 1989, Nature 341:167-168. In the assay, a DNA/RNA template is bound to SPA beads via a biotin/strepavidin linkage. The primer DNA is a 16-mer oligo(T) which has been annealed to a poly(A) template. The primer/template is bound to a strepavidin-coated SPA bead.
^3 H-TTP is incorporated into the primer by reverse transcription. In brief, ^3 H-TTP, at a final concentration of 0.5 μCi/sample, was diluted in RT assay buffer (49.5 mM Tris-Cl, pH 8.0, 80 mM KCl, 10 Mm MgCl2, 10 mM DTT, 2.5 mM EGTA, 0.05% Nonidet-P-40), and added to annealed DNA/RNA bound to SPA beads. The compound being tested was added to the reaction mixture at 0.001 μM-100 μM concentrations. […] The reaction was stopped by addition of 0.2 ml of 120 mM EDTA. The samples were counted in an open window using a Beckman LS 7600 instrument and IC50 values were calculated by comparing the measurements to untreated samples.

Series [5] relates to NNI-resistant HIV-1 strains. The note with it: earlier publication (Mao et al., 1999); cited from earlier work.
The test system of series [6] is HIV-1 strain A17 variant (Y181C, K103N). The experiment in a line: microbe, parasite or virus in culture. Type of series: cell-based. The note with it: Human immunodeficiency virus 1, PBMC, read-out: IC50 A17 Varient (Y181C, K103N). The method, then: as §1, §2
(§4) Percent inhibition of viral replication was calculated by comparing the p24 values from the test substance-treated infected cells with p24 values from untreated infected cells (i.e, virus controls).
(§5) RT-MDR was obtained through the AIDS Research and Reference Reagent Program, from Dr. Bendan Larder, and is described in Larder et al., 1993, Nature, 365, 451-453.

For series [7], the system named is HIV-1 strain RT-MDR (V106A). In words: microbe, parasite or virus in culture. The note with it: Human immunodeficiency virus 1, PBMC, read-out: IC50 RT-MDR (V106A). The series is classed as cell-based. As for the experimental part:
as §1, §2, §4, §5

Another series has as its system HIV-1 strain A17 (Y181C). The experiment in a line: microbe, parasite or virus in culture. Type of series: cell-based. The note with it: Human immunodeficiency virus 1, PBMC, read-out: IC50 A17 (Y181C). As for the experimental part:
as §1, §2, §3

On to `S=C(NCCN1CCCCC1)Nc1ccc(Br)cn1` [HI-172, N-[2-(1-piperidinoethyl)]-N'-[2-(5-bromopyridyl)]thiourea], for which the 50% cytotoxic concentration (CC50) in series [1] was over 100 µM. Also, the concentration for half-maximal inhibition (IC50) in the series with HIV-1 strain HTLVIIIB [2] was under 0.001 µM; in series [4] it was 0.6 µM; in series [6], over 100 µM; in series [7], over 100 µM; with HIV-1 strain A17 (Y181C), over 100 µM. Also, the “antiviral potency relative to trovirdine” value with HIV-1 strain HTLVIIIB [3] (HTLVIIIB) is recorded as “more potent than trovirdine”. Besides, the “abrogated the replication of HTLVIIIB” value with HIV-1 strain HTLVIIIB [3] (human PBMC) is reported as “nanomolar concentrations”. The “inhibition of replication of NNI-resistant HIV-1 strains” value in series [5] is “neither compound inhibited the replication”.
